Assay results from the supplement of paper PMC10307832.

Legend:
Assay in all cases: relative viability (nuclei count vs DMSO), 5 days (fraction); higher = more cells survive
AZ628 + Trametinib = compound: CC1=C(C=C(C=C1)NC(=O)C2=CC(=CC=C2)C(C)(C)C#N)NC3=CC4=C(C=C3)N=CN(C4=O)C [AZ628] + CC(=O)Nc1cccc(-n2c(=O)n(C3CC3)c(=O)c3c(Nc4ccc(I)cc4F)n(C)c(=O)c(C)c32)c1 [Trametinib] (partner 0.02 µM)
Method in brief: (§1)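 Medians of duplicate plates are given as relative viability. That measure is the nuclei count in treated wells divided by the count in vehicle wells. Counts were taken on 4× images of lung cancer cell lines in 1536-well plates, 5 days after pin-tool dosing the day after seeding with one drug alone or a fixed anchor-drug dose plus five library-drug doses (not always all listed) in √10 steps.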

QS11 + Olaparib = compound: C1CC2=C(C1)C=C(C=C2)OC3=NC(=C4C(=N3)N(C=N4)CC5=CC=C(C=C5)C6=CC=CC=C6)N[C@@H](CC7=CC=CC=C7)CO [QS11] + O=C(c1cc(Cc2n[nH]c(=O)c3ccccc23)ccc1F)N1CCN(C(=O)C2CC2)CC1 [Olaparib] (partner 8 µM)
Method in brief: as §1

AZ628 + Phenformin = compound: CC1=C(C=C(C=C1)NC(=O)C2=CC(=CC=C2)C(C)(C)C#N)NC3=CC4=C(C=C3)N=CN(C4=O)C [AZ628] + N=C(N)NC(=N)NCCc1ccccc1 [Phenformin] (partner 250 µM)
Method in brief: as §1

AZ628 + Tozasertib = compound: CC1=C(C=C(C=C1)NC(=O)C2=CC(=CC=C2)C(C)(C)C#N)NC3=CC4=C(C=C3)N=CN(C4=O)C [AZ628] + Cc1cc(Nc2cc(N3CCN(C)CC3)nc(Sc3ccc(NC(=O)C4CC4)cc3)n2)n[nH]1 [Tozasertib] (partner 0.1 µM)
Method in brief: as §1

LCLC-97TM1
relative viability (AZ628 + Trametinib; first compound 0.08 µM): 0.126 | relative viability (AZ628 + Trametinib; first compound 0.253 µM): 0.118 | relative viability (AZ628 + Trametinib; first compound 0.8 µM): 0.114 | relative viability (AZ628 + Trametinib; first compound 2.53 µM): 0.0994 | relative viability (AZ628 + Trametinib; first compound 8 µM): 0.116 | relative viability (QS11 + Olaparib; first compound 0.253 µM): 0.428 | relative viability (QS11 + Olaparib; first compound 2.53 µM): 0.495 | relative viability (QS11 + Olaparib; first compound 8 µM): 0.464 | relative viability (AZ628 + Phenformin; first compound 0.08 µM): 0.55 | relative viability (AZ628 + Phenformin; first compound 0.253 µM): 0.459 | relative viability (AZ628 + Phenformin; first compound 0.8 µM): 0.421 | relative viability (AZ628 + Phenformin; first compound 2.53 µM): 0.457 | relative viability (AZ628 + Phenformin; first compound 8 µM): 0.308 | relative viability (AZ628 + Tozasertib; first compound 0.08 µM): 0.239 | relative viability (AZ628 + Tozasertib; first compound 0.253 µM): 0.202 | relative viability (AZ628 + Tozasertib; first compound 0.8 µM): 0.235 | relative viability (AZ628 + Tozasertib; first compound 2.53 µM): 0.211 | relative viability (AZ628 + Tozasertib; first compound 8 µM): 0.167
